Measured values taken from US11726088B2, “Sirtuin 4 (SIRT4) lipoamidase activity and uses thereof” (THE TRUSTEES OF PRINCETON UNIVERSITY, priority 2014, dated 2023).
Primed or numbered codes have the meaning given here. Ends that are not written are not given here. Peptide text beside a SMILES is read from it. * marks the point of attachment. ξ: configuration not given here. Biotin = O=C1N[C@H]2[C@H](CS[C@H]2CCCCC(=O)*)N1; lipoyl″ = O=C(CCCC[C@@H]1CCSS1)*; Lipoyl(6ξ) = O=C(CCCCC1CCSS1)*

T1: SIRT4 (Homo sapiens, UniProt Q9Y6E7)
T1 construct: 6xHis (followed by human rhinovirus 3C protease site) (N); made in house; host or cells: E. coli BL21(DE3), co-expressed with GroEL and GroES
T1 sequence (Q9Y6E7 33-314): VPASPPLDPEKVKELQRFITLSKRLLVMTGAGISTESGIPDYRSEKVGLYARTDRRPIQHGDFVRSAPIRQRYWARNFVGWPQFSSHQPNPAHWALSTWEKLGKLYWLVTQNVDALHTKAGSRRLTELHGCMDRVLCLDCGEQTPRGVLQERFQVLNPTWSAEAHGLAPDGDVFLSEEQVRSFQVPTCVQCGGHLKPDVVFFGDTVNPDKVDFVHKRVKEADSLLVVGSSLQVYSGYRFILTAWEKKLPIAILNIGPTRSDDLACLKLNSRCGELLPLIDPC


Tests used:
Assay type in all cases: biochemical
SIRT4 [1] = molecular target: T1, SIRT4; test: HPLC-based SIRT4 kinetics assays (steady-state, acyl-modified peptide substrates); details: SIRT4 enzyme concentration = 5 μM; NAD 1 mM; 25° C.
Text: Recombinant SIRT4 protein expression and purification. N-terminally truncated human Sirt4 (33-314 of SEQ ID NO: 2) was cloned into a derivative of pET-15b containing a human rhinovirus 3C Protease cleavage site in place of its thrombin cleavage site. 6×His-Sirt4 was co-expressed with GroEL and GroES in BL21(DE3) E. coli in order to promote proper protein folding. Protein was purified using immobilized-metal affinity chromatography (IMAC) followed by anion-exchange chromatography to remove associated folding chaperones. For some experiments the His-tag was removed using 3C protease. Protein was concentrated, snap frozen in N2(l), and stored at −80° C. HPLC-based SIRT4 kinetics assays. SIRT4 kinetic assays were essentially performed as described by others^3,4. Briefly, enzyme reactions (20 μL) were performed in 50 mM Tris, pH 8.0, containing 5 μM recombinant SIRT4 and varying concentrations (0 to 2500 μM) of H3K9- or DLAT-modified peptides with either acetyl-lysine, biotinyl-lysine, or lipoyl-lysine. Reactions were initiated by addition of NAD (1 mM) and incubated at 25° C. for between 30-120 min, depending on substrate-specific reaction rates and to maintain steady-state conditions. Reactions were quenched with formic acid to a final concentration of 0.5% (v/v) and analyzed by HPLC-UV detection (Ultimate 3000 RSLC/VWD-3400). Substrate and product were separated by reverse-phase chromatography (Acclaim PepMap RSLC, 75 μm×15 cm) at 0.75 μL/min. Product concentration was measured by peak integration of A280 signals. Initial reaction velocities were determined in at least duplicate and fit to a modified Briggs-Haldane equation, which substituted kcat×[SIRT4] for Vmax and allowed determination of kinetic parameters, kcat, Km and kcat/Km and their associated error (±SEM), using GraphPad Prism 5. SIRT4's catalytic efficiency towards the various acyl-modified peptide substrates was assessed (Table 1 below).

SIRT4 [2] = molecular target: T1, SIRT4; test: LC-MS-based in vitro peptide deacylation assay; details: 5 μM SIRT4, 10 uM peptide, with NAD, 1 hr at 37° C.
Text: Recombinant SIRT4 protein expression and purification. N-terminally truncated human Sirt4 (33-314 of SEQ ID NO: 2) was cloned into a derivative of pET-15b containing a human rhinovirus 3C Protease cleavage site in place of its thrombin cleavage site. 6×His-Sirt4 was co-expressed with GroEL and GroES in BL21(DE3) E. coli in order to promote proper protein folding. Protein was purified using immobilized-metal affinity chromatography (IMAC) followed by anion-exchange chromatography to remove associated folding chaperones. For some experiments the His-tag was removed using 3C protease. Protein was concentrated, snap frozen in N2(l), and stored at −80° C.
LC-MS-based in vitro peptide deacylation assay. The ability of SIRT4 to hydrolyze various acyl-lysine modifications was measured using LC-MS. In 20 μL reaction volume, 10 uM peptide (lipoyl-, biotinyl-, or acetyl-lysine) was incubated with increasing concentrations of SIRT4 (0.5 μM, 2.5 μM, and 5 μM), with or without NAD, in 50 mM TrisHCl, pH 8, 137 mM NaCl, 2.7 mM KCl and 1 mM MgCl2, for 1 hr at 37° C. Reactions were quenched with 25 μL of 2% TFA and an internal control peptide was spiked in to monitor for run-to-run variability. Reaction products were desalted, eluted, concentrated and analyzed by nano-LC-MS/MS, as above, but altered LC gradients. A 30 min linear gradient from 4-40% B was used for all peptides, except for lipoyl-lysine biological peptides, which used a 12-70% B linear gradient. Data were imported into Skyline software (version 2.1) to obtain precursor extracted ion chromatographams (XICs) using the following settings: Isotope Count, 3; precursor mass analyzer, Orbitrap; Resolving power, 60,000 @ 400 Th. The retention times of substrate (modified) and product (unmodified) peptides were confirmed by fragmentation spectra and peak integration boundaries were manually inspected. Three biological replicates were analyzed for each reaction.
The lipoamide cofactor bound to E2 (transferase enzymes) is required for dehydrogenase complex activity (FIG. 1b). Given that other mitochondrial SIRTs can hydrolyze various […] group lysine modifications^3,4 and that all PDHC components were present in our SIRT4 isolation, we speculated that E2 dehydrogenase components may be biological substrates of SIRT4, and that SIRT4 may directly hydrolyze the lipoamid modification. To test this we screened the in vitro activity of recombinant SIRT4 against differentially-modified synthetic peptides (FIG. 10). Firstly, SIRT4 activity towards acyl-modified H3K9 peptides (SEQ ID NOs: 3-5) was measured using a liquid-chromatography (LC)-MS-based deacylation assay. SIRT4 was incubated with H3K9 peptides modified with acetyl-lysine (SEQ ID NO: 5), biotinyl-lysine (SEQ ID NO: 4) or lipoyl-lysine (SEQ ID NO: 3), in the presence or absence of NAD. Following reaction, the remaining unreacted substrates and newly generated unmodified peptides were identified and quantified by LC-MS (FIG. 2A, 2G-2I and FIG. 5). […] To compare the relative preference of SIRT4 for these different substrates, we used extracted ion chromatograms to quantify unreacted substrate (S) and product (P) amounts from all reactions, and represented the percentage of unmodified peptide generated (FIG. 2H). […] The relative amount of unmodified product generated using 5 μM SIRT4 was 11% (lipoyl—SEQ ID NO: 3), 3% (biotinyl—SEQ ID NO: 4) and 0.3% (acetyl—[…]) (FIG. 2B and FIG. 2H, H3K9 substrates). […]

purified porcine PDH = test: Immuno-capture activity assay of purified porcine PDH in vitro; details: PDP1 0.1 μg/μL; recombinant SIRT4 50 μM + NAD 5 mM after PDP1
Experimental: Purified porcine heart PDH pre-incubated at a final concentration of 1 μg/μl (10 and 25 μL reactions for PDH assay and Western blot, respectively) in 1×PDH assay buffer for 10 min at 30° C. containing 2 mM CaCl2), with or without 0.1 μg/μL of pyruvate dehydrogenase phosphatase catalytic subunit 1 (PDP1, Abcam, cat. #ab110357). To reactions that were treated with PDP1, either NAD alone (5 mM), recombinant SIRT4 (50 μM)+NAD (5 mM), or recombinant SIRT4 H161Y (50 μM)+NAD (5 mM) were added and incubated for an additional 1 hr at RT. 10 μL reactions were diluted with 400 μL of 1×PDH assay buffer and 2×200 μL were used to determine PDH activity. For Western blot analysis (25 μl reactions), 5 μg of purified porcine PDH was mixed in 1× reducing LDS sample buffer, heated at 70° C. for 10 min, resolved by SDS-PAGE, and then proteins were transferred to nitrocellulose membranes for detection of total E1α, pS232, pS293, and pS300 (see western immunoblotting above).
To characterize the impact of the observed in vitro activity, we next assessed whether SIRT4 could regulate the activity of PDH. We first used an immuno-capture assay to test the activity of purified porcine PDH in vitro (FIG. 14A). […] Therefore, we speculated that the reduction in activity may result from SIRT4 directly hydrolyzing the DLAT lipoamide.

| Molecule | Km (SIRT4 [1]) [µM] | relative amount of unmodified product generated (SIRT4 [2]) [%] | activity of purified porcine PDH (purified porcine PDH) |
| --- | --- | --- | --- |
| CC[C@H](C)[C@H](NC(=O)[C@@H](NC(=O)[C@H](C)NC(=O)[C@H](CCCCNC(C)=O)NC(=O)[C@H](CC(=O)O)NC(=O)[C@@H](NC(=O)[C@H](CCC(=O)O)NC(=O)[C@@H](NC(=O)[C@@H](N)CCC(=O)O)[C@@H](C)CC)[C@@H](C)O)[C@@H](C)O)C(=O)NCC(=O)N[C@@H](Cc1c[nH]c2ccccc12)C(=O)O [DLAT K259 Acetyl] (H-EIETDK(Ac)ATIGW-OH) | > 2500 | – | – |
| CC(=O)NCCCC[C@H](NC(=O)[C@H](CCCNC(=N)N)NC(=O)[C@H](C)NC(=O)[C@@H](NC(=O)[C@H](CCC(N)=O)NC(=O)[C@@H](N)CCCCN)[C@@H](C)O)C(=O)N[C@@H](CO)C(=O)N[C@H](C(=O)NCC(=O)NCC(=O)N[C@@H](Cc1c[nH]c2ccccc12)C(=O)N[C@@H](Cc1c[nH]c2ccccc12)C(=O)O)[C@@H](C)O [H3 K9 Acetyl] (H-KQTARK(Ac)STGGWW-OH) | > 2500 | 0.3 | – |
| PDP1: pyruvate dehydrogenase phosphatase catalytic subunit 1 (protein, UniProt Q9P0J1 72-537, looked up) [Pyruvate dehydrogenase …: ASTPQKFYLTPPQVNSILKANEYSFKVPEFDGKNVSSILGFDSNQLPANAPIEDRRSAATCLQTRGMLLGVFDGHAGCACSQAVSERLFYYIAVSLLPHETLLEIENAVESGRALLPILQWHKHPNDYFSKEASKLYFNSLRTYWQELIDLNTGESTDIDVKEALINAFKRLDNDISLEAQVGDPNSFLNYLVLRVAFSGATACVAHVDGVDLHVANTGDSRAMLGVQEEDGSWSAVTLSNDHNAQNERELERLKLEHPKSEAKSVVKQDRLLGLLMPFRAFGDVKFKWSIDLQKRVIESGPDQLNDNEYTKFIPPNYHTPPYLTAEPEVTYHRLRPQDKFLVLATDGLWETMHRQDVVRIVGEYLTGMHHQQPIAVGGYKVTLGQMHGLLTERRTKMSSVFEDQNAATHLIRHAVGNNEFGTVDHERLSKMLSLPEELARMYRDDITIIVVQFNSHVVGAYQNQE | – | – | elevated PDH activity |
| SIRT4: N-terminally truncated recombinant human Sirt4 (33-314 of SEQ ID NO: 2) (protein, listed as Homo sapiens) VPASPPLDPEKVKELQRFITLSKRLLVMTGAGISTESGIPDYRSEKVGLYARTDRRPIQHGDFVRSAPIRQRYWARNFVGWPQFSSHQPNPAHWALSTWEKLGKLYWLVTQNVDALHTKAGSRRLTELHGCMDRVLCLDCGEQTPRGVLQERFQVLNPTWSAEAHGLAPDGDVFLSEEQVRSFQVPTCVQCGGHLKPDVVFFGDTVNPDKVDFVHKRVKEADSLLVVGSSLQVYSGYRFILTAWEKKLPIAILNIGPTRSDDLACLKLNSRCGELLPLIDPC | – | – | able to attenuate PDH activity |

Continued, in another order:

| Km (SIRT4 [1]) [µM] | relative amount of unmodified product generated (SIRT4 [2]) [%] | Molecule | activity of purified porcine PDH (purified porcine PDH) |
| --- | --- | --- | --- |
| > 2500 | – | MCD K471 Acetyl: synthetic MCD K471 peptide SYLGSKNIKASEW with acetyl-lysine (SEQ ID NO: 29) (also: acetyl-lysine at K471, K6 or K9 not given here) | – |
| 814 ± 163 | 11 | C[C@H](NC(=O)[C@@H](NC(=O)[C@H](CCC(N)=O)NC(=O)[C@@H](N)CCCCN)[C@@H](C)O)C(=O)N[C@@H](CCCNC(=N)N)C(=O)N[C@@H](CCCCNC(=O)CCCCC1CCSS1)C(=O)N[C@@H](CO)C(=O)N[C@H](C(=O)NCC(=O)NCC(=O)N[C@@H](Cc1c[nH]c2ccccc12)C(=O)N[C@@H](Cc1c[nH]c2ccccc12)C(=O)O)[C@@H](C)O (some centres unmarked) [H3 K9 Lipoyl] (H-KQTARK(Lipoyl(6ξ))STGGWW-OH) | – |
| 719 ± 79 | 3 | C[C@H](NC(=O)[C@@H](NC(=O)[C@H](CCC(N)=O)NC(=O)[C@@H](N)CCCCN)[C@@H](C)O)C(=O)N[C@@H](CCCNC(=N)N)C(=O)N[C@@H](CCCCNC(=O)CCCC[C@@H]1SC[C@@H]2NC(=O)N[C@@H]21)C(=O)N[C@@H](CO)C(=O)N[C@H](C(=O)NCC(=O)NCC(=O)N[C@@H](Cc1c[nH]c2ccccc12)C(=O)N[C@@H](Cc1c[nH]c2ccccc12)C(=O)O)[C@@H](C)O [H3 K9 Biotinyl] (H-KQTARK(Biotin)STGGWW-OH) | – |
| – | 42 | PDHX: lipoyl-modified PDHX peptide substrate (SEQ ID NO: 12); unmodified product is SEQ ID NO: 13 (EIETDK(lipoyl″)AVVTWW) | – |
